{"source": "patent US20110146671A1", "about": "“PHARMACEUTICAL COMPOSITIONS AND METHODS OF DELIVERING THE SAME” (priority 2006, published 2011)", "origin": "cited, not measured here", "test_system": "patients with perennial allergic rhinitis", "conditions": "1% solution in normal saline, nasal wash every 48 hours for 4 weeks, versus placebo wash (normal saline only)", "note": "Structures can show the parent of a compound that is named as a salt."}
{"molecule": "CN[C@@H](C)[C@H](O)c1ccccc1", "note": "[ephedrine hydrochloride]", "values": [{"measurement": "peak nasal inspiratory flow rates", "value": "significant improvement"}, {"measurement": "symptom scores", "value": "significant improvement"}]}
